# What was measured:
# [1] = tested on: Haematobia irritans (horn fly); experiment: Efficacy of long-acting injectable composition against Haematobia irritans (horn fly) on cattle; type: in vivo; conditions: naturally infested cattle, 10% (w/v) composition at 0.25 mL/50 kg body weight
# Description: The efficacy of a long-acting injectable composition comprising the compound of formula (S)-Ie against horn fly on cattle was evaluated. Two groups of 15 cattle were selected for the study and randomly assigned to one of two groups. The cattle in Group 1 were untreated and the cattle in Group 2 were treated with a long-acting composition of the invention containing 10% (w/v) of the compound of formula (S)-Ie in a carrier comprising 8% (w/v) ethanol in PEG 400 (QS). The composition was administered to the cattle in Group 2 at a dose of 0.25 mL/50 kg body weight. Each animal was naturally infested with horn flies, and horn fly counts were performed on Days-2, 3, 7, 10, 13, 16, 20, 23, 27, 30, 34, 37, 43, 45 and 48. Tables 2A and 2B below provide the horn fly counts and the % reduction of the treated group relative to the control.
# [2] = tested on: Rhipicephalus microplus ticks; experiment: Efficacy of injectable formulation against Rhipicephalus (Boophilus) microplus ticks on cattle; type: in vivo; conditions: for Average % Efficacy (Tick Count): vs untreated control
# Description: The efficacy of long-acting injectable compositions of the invention comprising the compounds of formula (Ie) and (S)-Ie, against Rhipicephalus microplus ticks on cattle was determined against an untreated control group. The efficacy of compositions comprising the compounds (Ie) and (S)-e were also compared with injectable compositions comprising afoxolaner (formula Ia, 4-[5-[3-chloro-5-(trifluoromethyl)phenyl]-4,5-dihydro-5-(trifluoromethyl)-3-isoxazolyl]-N-[2-oxo-2-[(2,2,2-trifluoroethyl)amino]ethyl]-1-naphthalanecarboxamide), and comparative compounds of formulae (If) and (S)-If shown below.
# Each compound was formulated in an injectable composition at a concentration of 10% (w/v) in a carrier comprising 8% (w/v) ethanol and Q.S. with polyethylene glycol 400. The racemic compounds afoxolaner and (If) were dosed at 1.0 mg/kg body weight and the (S)-enantiomers ((S)-Ie and (S)-If) were dosed at 0.5 mg/kg body weight. Six healthy head of cattle were used in each study group. Cattle in Group 1 were untreated (control). Cattle in Groups 2, 3, 4, 5 and 6 were treated on Day 0 subcutaneously with injectable compositions comprising the compounds of formula Ie, (S)-If, (S)-Ie, afoxolaner (Ia) and (If), respectively. Several weeks before treatment, cattle were infested three times a week with approximately 2500 Rhipicephalus microplus larvae to establish ongoing infestations. Each animal was challenged by infestation with approximately 5000 R. microplus larvae on Days 7 and 21 and every 14 days thereafter. Ticks dropping from each animal in the previous 24 hours were collected daily and counted from Day 1 until the end of the study.
# [3] = injectable composition, compared with afoxolaner, (If) or (S)-If
compound,measurement,setting,value
O=C(CNC(=O)c1ccc(C2=NO[C@@](c3cc(Cl)c(F)c(C(F)(F)F)c3)(C(F)(F)F)C2)c2ccccc12)NCC(F)(F)F [(S)-Ie],% Reduction of horn fly counts of the treated group relative to the control,[1]; Day 3,89.5%
same,Arithmetic Mean of Horn Fly Counts,[1]; Day 3,26.7
same,% Reduction of horn fly counts of the treated group relative to the control,[1]; Day 7,74.3%
same,Arithmetic Mean of Horn Fly Counts,[1]; Day 7,35.0
same,% Reduction of horn fly counts of the treated group relative to the control,[1]; Day 10,79.6%
same,Arithmetic Mean of Horn Fly Counts,[1]; Day 10,16.0
same,% Reduction of horn fly counts of the treated group relative to the control,[1]; Day 13,63.3%
same,Arithmetic Mean of Horn Fly Counts,[1]; Day 13,22.0
same,% Reduction of horn fly counts of the treated group relative to the control,[1]; Day 16,57.3%
same,Arithmetic Mean of Horn Fly Counts,[1]; Day 16,44.7
same,% Reduction of horn fly counts of the treated group relative to the control,[1]; Day 20,56.6%
same,Arithmetic Mean of Horn Fly Counts,[1]; Day 20,36.0
same,% Reduction of horn fly counts of the treated group relative to the control,[1]; Day 23,42.5%
same,Arithmetic Mean of Horn Fly Counts,[1]; Day 23,30.7
same,% Reduction of horn fly counts of the treated group relative to the control,[1]; Day 27,61.8%
same,Arithmetic Mean of Horn Fly Counts,[1]; Day 27,22.7
same,% Reduction of horn fly counts of the treated group relative to the control,[1]; Day 30,67.6%
same,Arithmetic Mean of Horn Fly Counts,[1]; Day 30,23.0
same,% Reduction of horn fly counts of the treated group relative to the control,[1]; Day 34,44.8%
same,Arithmetic Mean of Horn Fly Counts,[1]; Day 34,26.3
same,% Reduction of horn fly counts of the treated group relative to the control,[1]; Day 37,61.8%
same,Arithmetic Mean of Horn Fly Counts,[1]; Day 37,28.0
same,% Reduction of horn fly counts of the treated group relative to the control,[1]; Day 43,39.5%
same,Arithmetic Mean of Horn Fly Counts,[1]; Day 43,26.0
same,% Reduction of horn fly counts of the treated group relative to the control,[1]; Day 45,35.5%
same,Arithmetic Mean of Horn Fly Counts,[1]; Day 45,43.0
same,% Reduction of horn fly counts of the treated group relative to the control,[1]; Day 48,31.1%
same,Arithmetic Mean of Horn Fly Counts,[1]; Day 48,30.3
same,Average % Efficacy (Tick Count),"[2]; Day 5, 0.5 mg/kg subcutaneous on Day 0 ((S)-enantiomers)",66%
same,Average % Efficacy (Tick Count),"[2]; Day 10, 0.5 mg/kg subcutaneous on Day 0 ((S)-enantiomers)",93%
same,Average % Efficacy (Tick Count),"[2]; Day 20, 0.5 mg/kg subcutaneous on Day 0 ((S)-enantiomers)",100%
same,Average % Efficacy (Tick Count),"[2]; Day 30, 0.5 mg/kg subcutaneous on Day 0 ((S)-enantiomers)",100%
same,Average % Efficacy (Tick Count),"[2]; Day 40, 0.5 mg/kg subcutaneous on Day 0 ((S)-enantiomers)",100%
same,Average % Efficacy (Tick Count),"[2]; Day 49, 0.5 mg/kg subcutaneous on Day 0 ((S)-enantiomers)",100%
same,Average % Efficacy (Tick Count),"[2]; Day 55, 0.5 mg/kg subcutaneous on Day 0 ((S)-enantiomers)",100%
same,Average % Efficacy (Tick Count),"[2]; Day 60, 0.5 mg/kg subcutaneous on Day 0 ((S)-enantiomers)",100%
same,Average % Efficacy (Tick Count),"[2]; Day 65, 0.5 mg/kg subcutaneous on Day 0 ((S)-enantiomers)",100%
same,Average % Efficacy (Tick Count),"[2]; Day 70, 0.5 mg/kg subcutaneous on Day 0 ((S)-enantiomers)",100%
same,Average % Efficacy (Tick Count),"[2]; Day 75, 0.5 mg/kg subcutaneous on Day 0 ((S)-enantiomers)",100%
same,Average % Efficacy (Tick Count),"[2]; Day 80, 0.5 mg/kg subcutaneous on Day 0 ((S)-enantiomers)",100%
same,Average % Efficacy (Tick Count),"[2]; Day 85, 0.5 mg/kg subcutaneous on Day 0 ((S)-enantiomers)",90%
same,Average % Efficacy (Tick Count),"[2]; Day 88, 0.5 mg/kg subcutaneous on Day 0 ((S)-enantiomers)",88%
same,Average % Efficacy (Tick Count),"[2]; Day 95, 0.5 mg/kg subcutaneous on Day 0 ((S)-enantiomers)",92%
same,Average % Efficacy (Tick Count),"[2]; Day 100, 0.5 mg/kg subcutaneous on Day 0 ((S)-enantiomers)",88%
same,Average % Efficacy (Tick Count),"[2]; Day 105, 0.5 mg/kg subcutaneous on Day 0 ((S)-enantiomers)",76%
same,Average % Efficacy (Tick Count),"[2]; Day 110, 0.5 mg/kg subcutaneous on Day 0 ((S)-enantiomers)",65%
same,efficacy and duration of activity against Rhipicephalus microplus compared with other isoxazoline compounds,[2]; [3],surprising and unexpected efficacy
same,speed of onset of efficacy against Rhipicephalus microplus compared with other isoxazoline compounds,[2]; [3],faster-acting
